36 substances from patent US10130693B2, “Peptides, combination of peptides and scaffolds for use in immunotherapeutic treatment of various cancers” (Immatics Biotechnologies GmbH, priority 2015, dated 2018) can be followed below.

One assay relates to CD8+ T cells. In words: In vitro immunogenicity: T-cell priming with aAPCs loaded with HLA-A*24 peptide/MHC and anti-CD28, multimer staining. It counts as cell-based, human. The note with it: HLA-A*24 peptides; for in vitro immunogenicity, wells: positive wells after priming. Here is the method:
CD8+ T cells were primed using artificial APCs coated with anti-CD28 mAb and HLA-A*24 in complex with SEQ ID NO: 99 peptide (FIG. 5A, left panel), SEQ ID NO: 119 peptide (FIG. 5B, left panel), SEQ ID NO: 142 peptide (FIG. 5C, left panel) and SEQ ID NO: 174 peptide FIG. 5 (D, left panel), respectively. After three cycles of stimulation, the detection of peptide-reactive cells was performed by 2D multimer staining with A*24/SEQ ID NO: 99 (FIG. 5A), A*24/SEQ ID NO: 119 (FIG. 5B), A*24/SEQ ID NO: 142 (FIG. 5C) or A*24/SEQ ID NO: 174 (FIG. 5D). Right panels (FIGS. 5A,5B,5C and 5D) show control staining of cells stimulated with irrelevant A*24/peptide complexes. Viable singlet cells were gated for CD8+ lymphocytes. Boolean gates helped excluding false-positive events detected with multimers specific for different peptides. Frequencies of specific multimer+ cells among CD8+ lymphocytes are indicated.
Generation of pMHC/anti-CD28 coated beads, T-cell stimulations and readout was performed in a highly defined in vitro system using four different pMHC molecules per stimulation condition and 8 different pMHC molecules per readout condition.
The purified co-stimulatory mouse IgG2a anti human CD28 Ab 9.3 (Jung et al., 1987) was chemically biotinylated using Sulfo-N-hydroxysuccinimidobiotin as recommended by the manufacturer (Perbio, Bonn, Germany). Beads used were 5.6 μm diameter streptavidin coated polystyrene particles (Bangs Laboratories, Illinois, USA).
800.000 beads/200 μl were coated in 96-well plates in the presence of 4×12.5 ng different biotin-pMHC, washed and 600 ng biotin anti-CD28 were added subsequently in a volume of 200 μl. Stimulations were initiated in 96-well plates by co-incubating 1×10^6 CD8+ T cells with 2×10^5 washed coated beads in 200 μl TCM supplemented with 5 ng/ml IL-12 (PromoCell) for 3 days at 37° C. Half of the medium was then exchanged by fresh TCM supplemented with 80 U/ml IL-2 and incubating was continued for 4 days at 37° C. This stimulation cycle was performed for a total of three times. For the pMHC multimer readout using 8 different pMHC molecules per condition, a two-dimensional combinatorial coding approach was used as previously described (Andersen et al., 2012) with minor modifications encompassing coupling to 5 different fluorochromes. Finally, multimeric analyses were performed by staining the cells with Live/dead near IR dye (Invitrogen, Karlsruhe, Germany), CD8-FITC antibody clone SK1 (BD, Heidelberg, Germany) and fluorescent pMHC multimers. For analysis, a BD LSRII SORP cytometer equipped with appropriate lasers and filters was used. Peptide specific cells were calculated as percentage of total CD8+ cells. Evaluation of multimeric analysis was done using the FlowJo software (Tree Star, Oregon, USA). In vitro priming of specific multimer+CD8+ lymphocytes was detected by comparing to negative control stimulations.

The subject of a further assay is HLA-A*24. The assay is described as follows: MHC binding assay, UV-ligand exchange with beta2m ELISA (exchange yield), HLA-A*24. On the set-up: species or system human. The settings on record: binding to HLA-A*24, UV-ligand exchange. The method in brief:
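Peptide–MHC complexes formed by UV-ligand exchange: a UV-cleavable peptide is replaced by the test peptide, and only binders keep the complex stable. Exchange yield read by streptavidin-capture ELISA on reactions diluted 100-fold, detected with HRP anti-β2m (2 ug/ml, 1 h, 37° C) and TMB at 450 nm.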
A general note: ELISA stands for enzyme-linked immunosorbent assay.

In another assay the target is HLA-A*02:01 (Homo sapiens, UniProt P04439, D140Y/D185E/D98H/E176V/E277Q/G131W/G231S/I119V/I121R/I166T/I218V/L300P/L318F/N151K/N90K/P208A/P217A/Q86G/Q94H/R138H/R169H/T345S). In words: MHC binding assay, UV-ligand exchange with beta2m ELISA (exchange yield), HLA-A*02. The settings on record: binding to HLA-A*02 ranged by peptide exchange yield. The text has this: Candidate peptides for T cell based therapies according to the present invention were further tested for their MHC binding capacity (affinity). The individual peptide-MHC complexes were produced by UV-ligand exchange, where a UV-sensitive peptide is cleaved upon UV-irradiation, and exchanged with the peptide of interest as analyzed. Only peptide candidates that can effectively bind and stabilize the peptide-receptive MHC molecules prevent dissociation of the MHC complexes. To determine the yield of the exchange reaction, an ELISA was performed based on the detection of the light chain (β2m) of stabilized MHC complexes. The assay was performed as generally described in Rodenko et al. (Rodenko et al., 2006).
96 well MAXISorp plates (NUNC) were coated over night with 2 ug/ml streptavidin in PBS at room temperature, washed 4× and blocked for 1 h at 37° C. in 2% BSA containing blocking buffer. […] Peptide-MHC monomers of the UV-exchange reaction were diluted 100 fold in blocking buffer. Samples were incubated for 1 h at 37° C., washed four times, incubated with 2 ug/ml HRP conjugated anti-β2m for 1h at 37° C., washed again and detected with TMB solution that is stopped with […]. Absorption was measured at 450 nm. Candidate peptides that show a high exchange yield (preferably higher than 50%, most preferred higher than 75%) are generally preferred for a generation and production of antibodies or fragments thereof, and/or T cell receptors or fragments thereof, as they show sufficient avidity to the MHC molecules and prevent dissociation of the MHC complexes.

Turning to “96 (YYTQYSQTI; listed as Homo sapiens) [compound 96]”, the “in vitro immunogenicity, Wells positive [%]” value (from here on “in vitro immunogenicity … [%]”) in the assay on CD8+ T cells was “+ (<20% = +)”. Further, in the assay on HLA-A*24, the “Peptide exchange (MHC class I binding score, peptide exchange yield)” value is “++++ (>=75% = ++++)”. In the case of “98 (VFPRLHNVLF; listed as Homo sapiens) [compound 98]”, the “in vitro immunogenicity … [%]” value with CD8+ T cells is “+ (<20% = +)”. The “Peptide exchange (MHC class I binding score, peptide exchange yield)” value in the assay on HLA-A*24 is “+++ (50%-75% = +++)”.

For “99 (QYILAVPVL; listed as Homo sapiens) [compound 99]”, the “in vitro immunogenicity … [%]” value in the assay with CD8+ T cells is recorded as “+++ (50%-69% = +++)”. Moreover, the “Peptide exchange (MHC class I binding score, peptide exchange yield)” value in the assay with HLA-A*24 is on record as “++++ (>=75% = ++++)”. On to “102 (VYPFENFEF; listed as Homo sapiens) [compound 102]”, for which, in the assay on CD8+ T cells, the “in vitro immunogenicity … [%]” value is “+++ (50%-69% = +++)”. In addition, the “Peptide exchange (MHC class I binding score, peptide exchange yield)” value in the assay on HLA-A*24 was “+++ (50%-75% = +++)”.

With “103 (NYIPVKNGKQF; listed as Homo sapiens) [compound 103]”, the “in vitro immunogenicity … [%]” value with CD8+ T cells is on record as “+ (<20% = +)”. Besides, the “Peptide exchange (MHC class I binding score, peptide exchange yield)” value with HLA-A*24 is “+++ (50%-75% = +++)”. As to “104 (SYLTWHQQI; listed as Homo sapiens) [compound 104]”, in the assay with CD8+ T cells, the “in vitro immunogenicity … [%]” value was “+ (<20% = +)”. Besides, the “Peptide exchange (MHC class I binding score, peptide exchange yield)” value in the assay with HLA-A*24 is reported as “++++ (>=75% = ++++)”. Regarding “105 (IYNETITDLL; listed as Homo sapiens) [compound 105]”, the “in vitro immunogenicity … [%]” value in the assay with CD8+ T cells is “+ (<20% = +)”. Moreover, the “Peptide exchange (MHC class I binding score, peptide exchange yield)” value in the assay with HLA-A*24 is “+++ (50%-75% = +++)”. On to “106 (IYNETVRDLL; listed as Homo sapiens) [compound 106]”, for which the “in vitro immunogenicity … [%]” value with CD8+ T cells is “+ (<20% = +)”. The “Peptide exchange (MHC class I binding score, peptide exchange yield)” value with HLA-A*24 is listed as “+++ (50%-75% = +++)”. As for “107 (KYFPYLVVI; listed as Homo sapiens) [compound 107]”, the “in vitro immunogenicity … [%]” value in the assay on CD8+ T cells was “++ (20%-49% = ++)”. Moreover, the “Peptide exchange (MHC class I binding score, peptide exchange yield)” value with HLA-A*24 is recorded as “+++ (50%-75% = +++)”. “109 (LFITGGQFF; listed as Homo sapiens) [compound 109]”: in the assay on CD8+ T cells, the “in vitro immunogenicity … [%]” value is given as “++ (20%-49% = ++)”. Moreover, the “Peptide exchange (MHC class I binding score, peptide exchange yield)” value in the assay on HLA-A*24 is recorded as “++++ (>=75% = ++++)”. For “110 (SYPKIIEEF; listed as Homo sapiens) [compound 110]”, the “in vitro immunogenicity … [%]” value in the assay with CD8+ T cells is recorded as “++ (20%-49% = ++)”. The “Peptide exchange (MHC class I binding score, peptide exchange yield)” value in the assay on HLA-A*24 is listed as “+++ (50%-75% = +++)”.

Regarding “111 (VYVQILQKL; listed as Homo sapiens) [compound 111]”, the “in vitro immunogenicity … [%]” value with CD8+ T cells was “+ (<20% = +)”. For the same substance, in the assay on HLA-A*24, the “Peptide exchange (MHC class I binding score, peptide exchange yield)” value is listed as “+++ (50%-75% = +++)”. In the case of “112 (IYNFVESKL; listed as Homo sapiens) [compound 112]”, the “in vitro immunogenicity … [%]” value in the assay on CD8+ T cells is “+++ (50%-69% = +++)”. Moreover, in the assay on HLA-A*24, the “Peptide exchange (MHC class I binding score, peptide exchange yield)” value is given as “+++ (50%-75% = +++)”. The matching figures for “114 (QYLDGTWSL; listed as Homo sapiens) [compound 114]”: “+++ (50%-69% = +++)” and “++++ (>=75% = ++++)”. With “321 (SLWFKPEEL; listed as Homo sapiens) [compound 321]”, the “Peptide exchange (MHC class I binding score)” value with HLA-A*02:01 was “+++ (50%-75% = +++)”.

“323 (ILSVVNSQL; listed as Homo sapiens) [compound 323]”: in the assay with HLA-A*02:01, the “Peptide exchange (MHC class I binding score)” value is “+++ (50%-75% = +++)”. On the same count and under the same terms, the result for “324 (AIFDFCPSV; listed as Homo sapiens) [compound 324]” reads “++++ (>=75% = ++++)”; that for “325 (RLLPKVQEV; listed as Homo sapiens) [compound 325]”, “++ (20%-49% = ++)”; that for “326 (SLLPLVWKI; listed as Homo sapiens) [compound 326]”, “+++ (50%-75% = +++)”.

Take “327 (SIGDIFLKY; listed as Homo sapiens) [compound 327]”: in the assay with HLA-A*02:01, the “Peptide exchange (MHC class I binding score)” value was “+++ (50%-75% = +++)”.

In the case of “328 (SVDSAPAAV; listed as Homo sapiens) [compound 328]”, the “Peptide exchange (MHC class I binding score)” value in the assay with HLA-A*02:01 is reported as “++ (20%-49% = ++)”. For “329 (FAWEPSFRDQV; listed as Homo sapiens) [compound 329]”, the “Peptide exchange (MHC class I binding score)” value with HLA-A*02:01 was “++ (20%-49% = ++)”. “330 (FLWPKEVEL; listed as Homo sapiens) [compound 330]”: in the assay with HLA-A*02:01, the “Peptide exchange (MHC class I binding score)” value is recorded as “+++ (50%-75% = +++)”. For the substance “333 (GTFLEGVAK; listed as Homo sapiens) [compound 333]”, the “Peptide exchange (MHC class I binding score)” value in the assay with HLA-A*02:01 is recorded as “+++ (50%-75% = +++)”. Consider “334 (GRADALRVL; listed as Homo sapiens) [compound 334]”, for which, in the assay with HLA-A*02:01, the “Peptide exchange (MHC class I binding score)” value was “+++ (50%-75% = +++)”.

On to “335 (VLLAAGPSAA; listed as Homo sapiens) [compound 335]”, for which, in the assay with HLA-A*02:01, the “Peptide exchange (MHC class I binding score)” value is listed as “++ (20%-49% = ++)”. As for “336 (GLMDGSPHFL; listed as Homo sapiens) [compound 336]”, the “Peptide exchange (MHC class I binding score)” value with HLA-A*02:01 was “++ (20%-49% = ++)”. On the same count and under the same terms, the result for “337 (KVLGKIEKV; listed as Homo sapiens) [compound 337]” reads “+++ (50%-75% = +++)”; that for “338 (LLYDGKLSSA; listed as Homo sapiens) [compound 338]”, “++ (20%-49% = ++)”. The same measure, in the same setting: the result for “339 (VLGPGPPPL; listed as Homo sapiens) [compound 339]” reads “++ (20%-49% = ++)”; that for “340 (SVAKTILKR; listed as Homo sapiens) [compound 340]”, “++ (20%-49% = ++)”.

For the substance “393 (KYIEAIQWI; listed as Homo sapiens) [compound 393]”, the “in vitro immunogenicity, wells” value in the assay on CD8+ T cells was “++ (20%-49% = ++)”.

Take “399 (SYIDVLPEF; listed as Homo sapiens) [compound 399]”: the “in vitro immunogenicity, wells” value in the assay with CD8+ T cells is recorded as “++ (20%-49% = ++)”. Take “400 (KYLEKYYNL; listed as Homo sapiens) [compound 400]”: the “in vitro immunogenicity, wells” value in the assay on CD8+ T cells is reported as “++ (20%-49% = ++)”. For the substance “407 (VYGIRLEHF; listed as Homo sapiens) [compound 407]”, the “in vitro immunogenicity, wells” value with CD8+ T cells is given as “+++ (50%-69% = +++)”. With “414 (MYPYIYHVL; listed as Homo sapiens) [compound 414]”, the “in vitro immunogenicity, wells” value with CD8+ T cells is “++ (20%-49% = ++)”.
